Measured values reported in PubChem BioAssay AID274 (DTP/NCI, 2004).
Toxic doses and inconclusive results are not listed. The calls were made as follows: active = survival T/C of 150% or more; inactive = T/C below 125% in these data.

Test system: BDF1 mice, Lewis lung carcinoma iv, survival T/C
Test: NCI In Vivo Anticancer Drug Screen. Data for tumor model Lewis Lung Carcinoma (intravenous) in B6D2F1 (BDF1) mice
Settings: endpoint: median survival time, schedule: Q01DX009 (ip), higher = longer survival
Procedure: The antitumor activity of compounds was measured in mice bearing transplantable tumors. Survival or tumor size were measured and the results are expressed as the measurement made in the treated group (T) divided by the measurement made in the vehicle treated control group (C). The tumor model used in this assay is Lewis Lung Carcinoma (intravenous) in B6D2F1 (BDF1) mice

[1] = dose: 12.5 mg/kg/injection, vehicle: saline
[2] = dose: 25.0 mg/kg/injection, vehicle: saline
[3] = dose: 3.12 mg/kg/injection, vehicle: saline
[4] = dose: 100.0 mg/kg/injection, vehicle: saline with Tween-80
[5] = dose: 200.0 mg/kg/injection, vehicle: saline with Tween-80
[6] = dose: 400.0 mg/kg/injection, vehicle: saline with Tween-80
[7] = dose: 12.5 mg/kg/injection, vehicle: saline with Tween-80
[8] = dose: 25.0 mg/kg/injection, vehicle: saline with Tween-80
[9] = dose: 50.0 mg/kg/injection, vehicle: saline with Tween-80

Measured: T/C

NC(=O)c1ncn(C2OC(CO)C(O)C2O)n1 (stereo unspecified)
inactive: dose: 10.0 mg/kg/injection, vehicle: saline 110 % of control | dose: 20.0 mg/kg/injection, vehicle: saline 110 % of control | dose: 40.0 mg/kg/injection, vehicle: saline 101 % of control | dose: 80.0 mg/kg/injection, vehicle: saline 97 % of control | dose: 160.0 mg/kg/injection, vehicle: saline 106 % of control

O=C(C1CO1)C(Cl)(Cl)Cl (stereo unspecified)
inactive: [1] 98 % of control | [2] 102 % of control

[CH3][Sn]([CH3])([Cl])[S]CCN
inactive: [3] 91 % of control | dose: 6.25 mg/kg/injection, vehicle: saline 95 % of control | [1] 97 % of control | [2] 91 % of control

Oc1ccc2ccccc2c1N=Nc1ccc(F)cc1
inactive: [4] 106 % of control | [5] 91 % of control | [6] 106 % of control

CC(=O)C(O)N1C(=O)C=CC1=O (stereo unspecified)
inactive: dose: 0.62 mg/kg/injection, vehicle: saline 115 % of control | dose: 0.63 mg/kg/injection, vehicle: saline 95 % of control

Cc1cc(O)c(C(C)C)cc1S(=O)(=O)O (tested in a mixture with another compound)
inactive: dose: 100.0 mg/kg/injection, vehicle: Klucel (hydroxypropylcellulose) (HPC) 90 % of control | dose: 200.0 mg/kg/injection, vehicle: Klucel (hydroxypropylcellulose) (HPC) 102 % of control

CCCNC1=C(C)C(=O)C2=C(C1=O)[C@H](COC(N)=O)[C@]1(OC)[C@@H]3N[C@@H]3CN21
inactive: dose: 0.39 mg/kg/injection, vehicle: saline 104 % of control | dose: 0.78 mg/kg/injection, vehicle: saline 100 % of control | dose: 1.56 mg/kg/injection, vehicle: saline 102 % of control | [3] 108 % of control

O=C(Nc1nncs1)c1cccs1
inactive: [7] 95 % of control | [8] 104 % of control | [9] 92 % of control | [4] 94 % of control | [5] 98 % of control | [6] 95 % of control

C[C@]12CC[C@@H]3c4ccc(OC(=O)Cc5ccc(N(CCCl)CCCl)cc5)cc4CC[C@H]3[C@@H]1CC[C@@H]2OC(=O)Cc1ccc(N(CCCl)CCCl)cc1
inactive: [7] 97 % of control | [8] 104 % of control | [9] 99 % of control | [4] 91 % of control | [5] 98 % of control | [6] 100 % of control

CC(=O)CC(C)=O.CC(=O)CC(C)=O.O=N[O-].O=N[O-].[Co]
inactive: [7] 103 % of control | [8] 96 % of control | [9] 107 % of control

CN(C)CCN1C(=O)c2cccc3cc(N)cc(c23)C1=O
inactive: dose: 1.0 mg/kg/injection, vehicle: saline with Tween-80 100 % of control | dose: 2.0 mg/kg/injection, vehicle: saline with Tween-80 100 % of control | dose: 4.0 mg/kg/injection, vehicle: saline with Tween-80 97 % of control | dose: 8.0 mg/kg/injection, vehicle: saline with Tween-80 98 % of control | dose: 16.0 mg/kg/injection, vehicle: saline with Tween-80 116 % of control

CCCCCCCCCCCCCCCCCCCCCC(=O)Nc1ccn(C2OC(CO)C(O)C2O)c(=O)n1 (stereo unspecified)
inactive: [8] 94 % of control | [9] 124 % of control | [4] 113 % of control | [5] 120 % of control
